Experiment: xn = mol fraction of the nth substance listed

CCCBr + C1CCCCC1
308.15 K, 101 kPa
Details | viscosity [mPa·s]
x2 = 0.0957 | 0.4455
x2 = 0.1997 | 0.46
x2 = 0.2991 | 0.4715
x2 = 0.4983 | 0.516
x2 = 0.6052 | 0.5432
x2 = 0.7135 | 0.5889
x2 = 0.801 | 0.6197
x2 = 0.9011 | 0.6872

CC(C)(C)O + c1ccccc1
Details | viscosity [mPa·s]
298.15 K, 101 kPa, x1 = 0.0105 | 0.5986
298.15 K, 101 kPa, x1 = 0.02032 | 0.5966
298.15 K, 101 kPa, x1 = 0.02705 | 0.5958
298.15 K, 101 kPa, x1 = 0.03393 | 0.5954
298.15 K, 101 kPa, x1 = 0.04376 | 0.5954
298.15 K, 101 kPa, x1 = 0.05002 | 0.5954
298.15 K, 101 kPa, x1 = 0.06281 | 0.5966
298.15 K, 101 kPa, x1 = 0.07569 | 0.598
298.15 K, 101 kPa, x1 = 0.08395 | 0.5995
298.15 K, 101 kPa, x1 = 0.1597 | 0.6201
298.15 K, 101 kPa, x1 = 0.2472 | 0.6577
298.15 K, 101 kPa, x1 = 0.5139 | 0.886
298.15 K, 101 kPa, x1 = 0.9027 | 2.579
303 K, 101.3 kPa, x2 = 0.1001 | 2.487
303 K, 101.3 kPa, x2 = 0.2137 | 1.787
303 K, 101.3 kPa, x2 = 0.3033 | 1.395
303 K, 101.3 kPa, x2 = 0.4117 | 1.08
303 K, 101.3 kPa, x2 = 0.5129 | 0.8736
303 K, 101.3 kPa, x2 = 0.6126 | 0.7351
303 K, 101.3 kPa, x2 = 0.7187 | 0.6441
303 K, 101.3 kPa, x2 = 0.8046 | 0.6103
303 K, 101.3 kPa, x2 = 0.8998 | 0.5822
303.2 K, 101.33 kPa, x2 = 0.05 | 2.528
303.2 K, 101.33 kPa, x2 = 0.1 | 1.968
303.2 K, 101.33 kPa, x2 = 0.15 | 1.598
303.2 K, 101.33 kPa, x2 = 0.2 | 1.356
303.2 K, 101.33 kPa, x2 = 0.3 | 1.06
303.2 K, 101.33 kPa, x2 = 0.4 | 0.87
303.2 K, 101.33 kPa, x2 = 0.5 | 0.753
303.2 K, 101.33 kPa, x2 = 0.6 | 0.671
303.2 K, 101.33 kPa, x2 = 0.7 | 0.609
303.2 K, 101.33 kPa, x2 = 0.8 | 0.57
303.2 K, 101.33 kPa, x2 = 0.85 | 0.559
303.2 K, 101.33 kPa, x2 = 0.9 | 0.553
303.2 K, 101.33 kPa, x2 = 0.95 | 0.552

Nc1ccccc1 + CCCCCO
viscosity [mPa·s]
Details | 293.15 K | 303.15 K | 313.15 K | 323.15 K
100 kPa, x1 = 0.0802 | 3.66 | 2.77 | 2.11 | 1.66
100 kPa, x1 = 0.1304 | – | 2.664 | 2.018 | –
100 kPa, x1 = 0.1536 | 3.42 | 2.6 | 2.01 | 1.57
100 kPa, x1 = 0.2363 | 3.26 | 2.48 | 1.93 | 1.52
100 kPa, x1 = 0.2524 | – | 2.309 | 1.697 | –
100 kPa, x1 = 0.3418 | 3.15 | 2.4 | 1.86 | 1.48
100 kPa, x1 = 0.3885 | – | 1.947 | 1.361 | –
100 kPa, x1 = 0.4371 | 3.11 | 2.34 | 1.84 | 1.47
100 kPa, x1 = 0.4944 | – | 1.724 | 1.147 | –
100 kPa, x1 = 0.5521 | 3.12 | 2.32 | 1.84 | 1.47
100 kPa, x1 = 0.5745 | – | 1.627 | 1.051 | –
100 kPa, x1 = 0.6518 | 3.21 | 2.37 | 1.88 | 1.5
100 kPa, x1 = 0.6878 | – | 1.619 | 1.031 | –
100 kPa, x1 = 0.7411 | 3.35 | 2.47 | 1.96 | 1.56
100 kPa, x1 = 0.8105 | – | 1.865 | 1.245 | –
100 kPa, x1 = 0.8487 | 3.63 | 2.66 | 2.12 | 1.67
100 kPa, x1 = 0.924 | – | 2.42 | 1.75 | –
100 kPa, x1 = 0.9425 | 4.04 | 2.95 | 2.32 | 1.83
101.33 kPa, x2 = 0.1207 | 3.714 | – | – | –
101.33 kPa, x2 = 0.2883 | 3.273 | – | – | –
101.33 kPa, x2 = 0.3221 | 3.227 | – | – | –
101.33 kPa, x2 = 0.3789 | 3.161 | – | – | –
101.33 kPa, x2 = 0.4074 | 3.138 | – | – | –
101.33 kPa, x2 = 0.5661 | 3.087 | – | – | –
101.33 kPa, x2 = 0.7695 | 3.258 | – | – | –
101.33 kPa, x2 = 0.8055 | 3.326 | – | – | –
101.33 kPa, x2 = 0.8557 | 3.444 | – | – | –
101.33 kPa, x2 = 0.9099 | 3.605 | – | – | –
101.33 kPa, x2 = 0.9484 | 3.756 | – | – | –
101.33 kPa, x2 = 0.9525 | 3.775 | – | – | –

CCC(O)CO (centres undefined) + O=C1CCCN1
101.33 kPa
Details | viscosity [mPa·s]
298.15 K, x2 = 0.0555 | 46.5
298.15 K, x2 = 0.09272 | 42.92
298.15 K, x2 = 0.2043 | 34.62
298.15 K, x2 = 0.2943 | 29.84
298.15 K, x2 = 0.4023 | 25.54
298.15 K, x2 = 0.508 | 22.41
298.15 K, x2 = 0.6045 | 20.25
298.15 K, x2 = 0.6902 | 18.59
298.15 K, x2 = 0.7968 | 16.74
298.15 K, x2 = 0.8891 | 15.2
298.15 K, x2 = 0.9416 | 14.65
308.15 K, x2 = 0.04722 | 26.34
308.15 K, x2 = 0.1008 | 23.83
308.15 K, x2 = 0.2171 | 19.71
308.15 K, x2 = 0.2992 | 17.63
308.15 K, x2 = 0.6065 | 12.84
308.15 K, x2 = 0.6909 | 11.99
308.15 K, x2 = 0.8019 | 10.94
308.15 K, x2 = 0.886 | 10.18
308.15 K, x2 = 0.9402 | 9.675
318.15 K, x2 = 0.04672 | 15.75
318.15 K, x2 = 0.07619 | 15.07
318.15 K, x2 = 0.2048 | 12.57
318.15 K, x2 = 0.289 | 11.39
318.15 K, x2 = 0.4043 | 10.2
318.15 K, x2 = 0.4992 | 9.411
318.15 K, x2 = 0.6031 | 8.699
318.15 K, x2 = 0.6923 | 8.26
318.15 K, x2 = 0.7988 | 7.666
318.15 K, x2 = 0.8817 | 7.237
318.15 K, x2 = 0.9477 | 6.892

COCCOCCOCCO + CCOC(C)(C)C
viscosity [mPa·s], 101 kPa
Details | 293.15 K | 298.15 K | 303.15 K
x2 = 0.0504 | 6.269 | 5.479 | 4.777
x2 = 0.1 | 5.458 | 4.8 | 4.209
x2 = 0.1509 | 4.734 | 4.186 | 3.689
x2 = 0.2025 | 4.101 | 3.643 | 3.225
x2 = 0.2489 | 3.607 | 3.216 | 2.859
x2 = 0.3007 | 3.129 | 2.801 | 2.501
x2 = 0.3511 | 2.729 | 2.453 | 2.199
x2 = 0.3999 | 2.394 | 2.159 | 1.944
x2 = 0.4508 | 2.091 | 1.893 | 1.712
x2 = 0.5001 | 1.837 | 1.669 | 1.516
x2 = 0.5493 | 1.616 | 1.475 | 1.345
x2 = 0.6 | 1.418 | 1.3 | 1.192
x2 = 0.6503 | 1.248 | 1.149 | 1.058
x2 = 0.6998 | 1.102 | 1.019 | 0.943
x2 = 0.7491 | 0.974 | 0.906 | 0.842
x2 = 0.7999 | 0.86 | 0.803 | 0.751
x2 = 0.8509 | 0.759 | 0.712 | 0.669
x2 = 0.9001 | 0.674 | 0.635 | 0.6
x2 = 0.9498 | 0.599 | 0.566 | 0.536

From the CheMixHub viscosity set
